Source: USRE48461E1, “Modulation of androgen receptor expression” (Ionis Pharmaceuticals, Inc., priority 2012, dated 2021)
Oligonucleotides are written 5' to 3', each unit as a sugar letter and its base; * is a phosphorothioate linkage, no mark a phosphodiester; rarer units and linkages stand in square brackets, end groups in braces. Plain capitals give the bases only. e = 2'-O-(2-methoxyethyl) (MOE); k = constrained ethyl (cEt); [5mC] = 5-methylcytosine; d = 2'-deoxy (DNA)

Key:
[1] = test system: AR mRNA; assay: Dose-dependent antisense inhibition of human AR in HuVEC cells (electroporation, qRT-PCR RTS3559, IC50); format: cell-based; conditions: HuVEC, ~16 h
Protocol: (§1) After a treatment period of approximately 16 hours, RNA was isolated from the cells and AR mRNA levels were measured by quantitative real-time PCR. Human AR primer probe set RTS3559 was used to measure mRNA levels. AR mRNA levels were adjusted according to total RNA content, as measured by RIBOGREEN®. […] The antisense oligonucleotides were tested in a series of experiments that had similar culture conditions.
as §1, §1, §1, §1
(§2) After a treatment period of approximately 16 hours, RNA was isolated from the cells and AR mRNA levels were measured by quantitative real-time PCR. Human AR primer probe set RTS3559 was used to measure mRNA levels. AR mRNA levels were adjusted according to total RNA content, as measured by RIBOGREEN®.
as §2

[2] = test system: AR mRNA; assay: Antisense inhibition of human AR in HuVEC cells, single concentration (electroporation, qRT-PCR RTS3559); format: cell-based; conditions: ~24 h
Protocol: Antisense oligonucleotides were designed targeting an AR nucleic acid and were tested for their effects on AR mRNA in vitro. The antisense oligonucleotides were tested in a series of experiments that had similar culture conditions. […] Human primer probe set RTS3559 (forward sequence [NT], designated herein as SEQ ID NO: 9; reverse sequence [NT], designated herein as SEQ ID NO: 10; probe sequence [NT], designated herein as SEQ ID NO: 11) was used to measure mRNA levels. AR mRNA levels were adjusted according to total RNA content, as measured by RIBOGREEN®. […] A total of 155 oligonucleotides were tested. Additional antisense oligonucleotides were designed targeting an AR nucleic acid and were tested for their effects on AR mRNA in vitro. […] Human primer probe set RTS3559 was used to measure mRNA levels. AR mRNA levels were adjusted according to total RNA content, as measured by RIBOGREEN®. […] A total of 82 oligonucleotides were tested. Additional antisense oligonucleotides were designed targeting an AR nucleic acid and were tested for their effects on AR mRNA in vitro. […] Human primer probe set RTS3559 was used to measure mRNA levels. AR mRNA levels were adjusted according to total RNA content, as measured by RIBOGREEN®. […] A total of 40 oligonucleotides were tested. Additional antisense oligonucleotides were designed targeting an AR nucleic acid and were tested for their effects on AR mRNA in vitro. […] Human primer probe set RTS3559 was used to measure mRNA levels. AR mRNA levels were adjusted according to total RNA content, as measured by RIBOGREEN®. […] A total of 75 oligonucleotides were tested. Additional antisense oligonucleotides were designed targeting an AR nucleic acid and were tested for their effects on AR mRNA in vitro. […] Human primer probe set RTS3559 was used to measure mRNA levels. AR mRNA levels were adjusted according to total RNA content, as measured by RIBOGREEN®. […] A total of 616 oligonucleotides were tested. Additional antisense oligonucleotides were designed targeting an AR nucleic acid and were tested for their effects on AR mRNA in vitro. […] Human primer probe set RTS3559 was used to measure mRNA levels. AR mRNA levels were adjusted according to total RNA content, as measured by RIBOGREEN®. […] A total of 385 oligonucleotides were tested.

[3] = 500 nM ASO, electroporation, Table 2

Substance | percent inhibition of AR ([1]; 31.25 nM, Table 6) [%] | percent inhibition of AR ([1]; 62.5 nM, Table 6) [%] | percent inhibition of AR ([1]; 125.0 nM, Table 6) [%] | percent inhibition of AR ([1]; 500.0 nM, Table 6) [%] | percent inhibition of AR ([1]; 1000.0 nM, Table 6) [%] | IC50 ([1]; Table 6) [nM] | % inhibition ([2]; 500 nM ASO, Table 5) [%] | also measured
549457 (kT*kT*kG*dA*dT*dT*dT*dA*dA*dT*dG*dG*dT*kT*kG*k[5mC]) [compound 549457] | 40 | 57 | 78 | 96 | 96 | 30 | 98 | percent inhibition of AR ([1]; 31.25 nM, Table 8): 34%; percent inhibition of AR ([1]; 55.6 nM, Table 4): 70%; percent inhibition of AR ([1]; 62.5 nM, Table 8): 44%; percent inhibition of AR ([1]; 125.0 nM, Table 8): 75%; percent inhibition of AR ([1]; 166.7 nM, Table 4): 95%; percent inhibition of AR ([1]; 500.0 nM, Table 4): 99%; percent inhibition of AR ([1]; 500.0 nM, Table 8): 93%; percent inhibition of AR ([1]; 1000.0 nM, Table 8): 96%; percent inhibition of AR ([1]; 1500.0 nM, Table 4): 99%; IC50 ([1]; Table 4): 18 nM; IC50 ([1]; Table 8): 60 nM; % inhibition ([2]; 250 nM ASO, Table 7): 67%; % inhibition [2, 3]: 98%
549459 (kA*kT*kG*dG*dT*dT*dG*dA*dT*dT*dT*dA*dA*kT*kG*kG) [compound 549459] | 16 | 23 | 50 | 85 | 92 | 100 | 92 | percent inhibition of AR ([1]; 55.6 nM, Table 4): 61%; percent inhibition of AR ([1]; 166.7 nM, Table 4): 90%; percent inhibition of AR ([1]; 500.0 nM, Table 4): 94%; percent inhibition of AR ([1]; 1500.0 nM, Table 4): 97%; IC50 ([1]; Table 4): 18 nM; % inhibition [2, 3]: 96%
560071 (eT*eG*eG*eT*eT*dG*dA*dT*dT*dT*dA*dA*dT*dG*dG*eT*eT*eG*e[5mC]*eA) [compound 560071] | 7 | 0 | 19 | 57 | 76 | 400 | 73 | –
560098 (kT*kG*kA*dT*dT*dT*dA*dA*dT*dG*dG*dT*dT*kG*k[5mC]*kA; further chemistry not given here) [compound 560098] | 20 | 41 | 64 | 94 | 94 | 100 | 99 | percent inhibition of AR ([1]; 31.25 nM, Table 8): 30%; percent inhibition of AR ([1]; 62.5 nM, Table 8): 54%; percent inhibition of AR ([1]; 125.0 nM, Table 8): 65%; percent inhibition of AR ([1]; 500.0 nM, Table 8): 89%; percent inhibition of AR ([1]; 1000.0 nM, Table 8): 97%; IC50 ([1]; Table 8): 70 nM; % inhibition ([2]; 250 nM ASO, Table 7): 69%
560099 (kG*kG*kT*dT*dG*dA*dT*dT*dT*dA*dA*dT*dG*kG*kT*kT) [compound 560099] | 13 | 29 | 58 | 89 | 94 | 100 | 95 | –
560100 (antisense kT*kG*kG*dT*dT*dG*dA*dT*dT*dT*dA*dA*dT*kG*kG*kT) [compound 560100] | 16 | 24 | 53 | 81 | 93 | 100 | 91 | –
560132 (antisense kG*kT*kT*dG*dA*dT*dT*dT*dA*dA*dT*dG*kG*kT*kT*eG) [compound 560132] | – | – | – | – | – | – | – | percent inhibition of AR ([1]; 31.25 nM, Table 14): 8%; percent inhibition of AR ([1]; 62.5 nM, Table 14): 19%; percent inhibition of AR ([1]; 125.0 nM, Table 14): 21%; percent inhibition of AR ([1]; 500.0 nM, Table 14): 65%; percent inhibition of AR ([1]; 1000.0 nM, Table 14): 85%; IC50 ([1]; Table 14): 252 nM; % inhibition ([2]; 1,000 nM ASO, Table 13): 58%
560133 (antisense kA*kT*kG*dG*dT*dT*dG*dA*dT*dT*dT*dA*kA*kT*kG*eG) [compound 560133] | – | – | – | – | – | – | – | percent inhibition of AR ([1]; 31.25 nM, Table 14): 17%; percent inhibition of AR ([1]; 62.5 nM, Table 14): 15%; percent inhibition of AR ([1]; 125.0 nM, Table 14): 24%; percent inhibition of AR ([1]; 500.0 nM, Table 14): 58%; percent inhibition of AR ([1]; 1000.0 nM, Table 14): 79%; IC50 ([1]; Table 14): 336 nM; % inhibition ([2]; 1,000 nM ASO, Table 13): 53%
